Measurements published in paper PMC8373983, “Effect of salinity on the zinc(II) binding efficiency of siderophore functional groups and implications for salinity tolerance mechanisms in barley” (Scientific Reports, 2021).
Several values for one entry are separate records, joined by “and”; a condition that tells them apart may be missing. Identical values can stand only once. Marks after values point to notes of the source that are not given here. One block for each compound: values may come before it.

Assays:
[1] = Zinc(II)-ligand stability constants, potentiometric titration in NaCl; type: binding; conditions: for decrease in the 1:1 zinc(II) stability constant / decrease of the 1:1 zinc(II) stability constant: between 0.00 and 1.00 M NaCl
Procedure: (§1) Potentiometric measurements were carried out at T = 298.1 ± 0.1 K in thermostatted cells. The setup consisted of a Metrohm model 888 Titrando apparatus controlled by Metrohm TiAMO 1.2 software equipped with a combined gel electrode (VWR model 662 1759). Estimated precision was 0.2 mV and 0.003 ml for the electromotive force and titrant volume readings, respectively. All the potentiometric titrations were carried out under magnetic stirring and bubbling purified presaturated N2 through the solution to exclude O2 and CO2.
(§2) A 30 ml solution containing each ligand ([L] = 5 – 10 mM), NaCl and HCl was titrated with standard NaOH solutions. For the zinc(II)/ligand systems, the titrant solutions consisted of different amounts of ligand ([L] = 5 − 10 mM), zinc(II) ([Zn] = 0.5—5 mM) and a suitable amount of HCl and NaCl. All the measurements were carried out with an excess of the ligand, with respect to zinc(II) and at different zinc(II):ligand molar ratios. The selection of ratios investigated was determined by simulating titrations using Hyperquad Simulation and Speciation computer software (HySS)[41]. [Zn] and [L] were negligible compared to the background electrolyte concentrations. […] To account for the influence of zinc(II) hydrolysis in the zinc(II)/ligand systems, zinc(II) titrations were carried out separately at each ionic strength to determine the hydroxide constants so that these constants could be included in the equilibrium model used to refine the titration data. In these titrations, the zinc(II) concentration in the analyte solution was 0.7 mM.
(§3) Before each experiment, independent titrations of strong acid solutions with standard base were carried out under the same medium and ionic strength conditions as the systems to be investigated, with the aim of determining the electrode potential (E^0’) using GLEE software. In this way, the pH scale used was the […], pH = -log [H]^+, where [H]^+ is the free proton concentration. For each titration, approximately 80 to 100 data points were collected. The equilibrium state during titrations was checked by confirming the time required to reach equilibrium.
(§4) The software program Hyperquad was used to determine the equilibrium model and to calculate pKa and stability constants from the potentiometric data set[43]. For each set of pKa constants or zinc(II):ligand ratio studied, at least two repeat titrations were performed. The titration curves for each system were treated as a single set when refining the stability constants. This meant that the refinement procedure was run on both curves at the same time to derive a single set of constants. The error reported on the stability constants is the standard deviation given in the Hyperquad output file. Examples of Hyperquad files for the zinc(II)/PYR system are provided on the Zenodo repository (https://doi.org/10.5281/zenodo.4641710).
(§5) The ionic strength dependence of the stability constants was studied with the modified version of the Extended Debye–Hückel equation[28]. The Monte Carlo method, as described by Hu et al.[43], was used to estimate 95% confidence intervals on the parameters of ionic strength dependence; for each species, predicted stability constants were resampled using an inverse of the cumulative normal distribution function to give sets of simulated data from which the unknown parameters were optimized. An example Excel calculation file for the application of the modified version of the Extended Debye–Hückel equation to the zinc(II)/PYR system (including the calculation of error on parameters of ionic strength dependence) has been uploaded to the Zenodo repository (https://doi.org/10.5281/zenodo.4641710).
(§6) To quantify the improvement of using a direct vs. indirect method for studying ionic strength dependence, the Davies equation (Eq. 3) was applied to the zinc(II)/PYR data. Speciation calculations for a [Zn] = 10^–6 M and [L] = 10^–5 M system at infinite dilution were conducted with the aid of HySS. […]

[2] = Ligand protonation constants, potentiometric titration in NaCl; type: physicochemical
Procedure: as §1, §2, §3, §4, §5, §6

[3] = intrinsic, modified Extended Debye–Hückel fit (direct), T = 298.1 K
[4] = parameter of ionic strength dependence, NaCl
[5] = parameter of ionic strength dependence, NaCl, T = 298.1 K
[6] = Davies equation on 0.05 M NaCl data
[7] = Davies equation on 0.15 M NaCl data
[8] = Davies equation on 0.30 M NaCl data
[9] = Davies equation on 0.70 M NaCl data
[10] = Davies equation on 1.00 M NaCl data

stability lower than the equivalent 1:1 zinc(II)-PYR structure ([1]; 1:1 zinc(II) complex): approximately 7 logβ units | decrease in the 1:1 zinc(II) stability constant [1]: ~80% | decrease of the 1:1 zinc(II) stability constant [1]: 2.19 logβ units | log β, H+ + L = HL ([2]; 0.05 M NaCl, T = 298.1 K): 3.55 ± 0.01 | log β, H+ + L = HL ([2]; 0.15 M NaCl, T = 298.1 K): 3.49 ± 0.01 | log β, H+ + L = HL ([2]; 0.30 M NaCl, T = 298.1 K): 3.54 ± 0.01 | log β, H+ + L = HL ([2]; 0.70 M NaCl, T = 298.1 K): 3.44 ± 0.01 | log β, H+ + L = HL ([2]; 1.00 M NaCl, T = 298.1 K): 3.39 ± 0.01 | logβ^0, H+ + L = HL [2, 3]: 3.750^b | C, H+ + L = HL [2, 5]: 0.070^b
SMILES: O=C(O)CO [GLY, glycolic acid]
log β, Zn2+ + L = ZnL (1:1) ([1]; 0.05 M NaCl, T = 298.1 K): 2.83±0.02 | log β, Zn2+ + L = ZnL (1:1) ([1]; 0.15 M NaCl, T = 298.1 K): 2.10±0.01 | log β, Zn2+ + L = ZnL (1:1) ([1]; 0.30 M NaCl, T = 298.1 K): 1.93±0.01 | log β, Zn2+ + L = ZnL (1:1) ([1]; 0.70 M NaCl, T = 298.1 K): 1.25±0.03 | log β, Zn2+ + L = ZnL (1:1) ([1]; 1.00 M NaCl, T = 298.1 K): 0.83±0.04 | logβ0, Zn2+ + L = ZnL (1:1) [1, 3]: 3.018±0.003 | C, Zn2+ + L = ZnL (1:1) [1, 4]: -1.418±0.006

decrease in the 1:1 zinc(II) stability constant [1]: 20% | decrease of the 1:1 zinc(II) stability constant [1]: 1.67 logβ units | log β, 2H+ + L = H2L ([2]; 0.05 M NaCl, T = 298.1 K): 21.36 ± 0.07 | log β, H+ + L = HL ([2]; 0.05 M NaCl, T = 298.1 K): 12.16 ± 0.03 | log β, 2H+ + L = H2L ([2]; 0.15 M NaCl, T = 298.1 K): 21.14 ± 0.02 | log β, H+ + L = HL ([2]; 0.15 M NaCl, T = 298.1 K): 11.97 ± 0.01 | log β, 2H+ + L = H2L ([2]; 0.30 M NaCl, T = 298.1 K): 21.06 ± 0.02 | log β, H+ + L = HL ([2]; 0.30 M NaCl, T = 298.1 K): 11.94 ± .01 | log β, 2H+ + L = H2L ([2]; 0.70 M NaCl, T = 298.1 K): 21.04 ± 0.02 | log β, H+ + L = HL ([2]; 0.70 M NaCl, T = 298.1 K): 11.96 ± 0.01 | log β, 2H+ + L = H2L ([2]; 1.00 M NaCl, T = 298.1 K): 20.88 ± 0.02 | log β, H+ + L = HL ([2]; 1.00 M NaCl, T = 298.1 K): 11.79 ± 0.01 | log β0 (indirect), H2L [2, 6]: 21.61±0.07 | log β0 (indirect), HL- [2, 6]: 12.50±0.03 | log β0 (indirect), H2L [2, 7]: 21.48±0.02 | log β0 (indirect), HL- [2, 7]: 12.45±0.01 | log β0 (indirect), H2L [2, 8]: 21.45±0.02 | log β0 (indirect), HL- [2, 8]: 12.48±0.01 | log β0 (indirect), H2L [2, 9]: 21.4±0.02 | log β0 (indirect), HL- [2, 9]: 12.46±0.01 | log β0 (indirect), H2L [2, 10]: 21.18 ±0.02 | log β0 (indirect), HL- [2, 10]: 12.20±0.01 | logβ^0, 2H+ + L = H2L [2, 3]: 21.87±0.001 and 21.874 ± 0.001 | logβ^0, H+ + L = HL [2, 3]: 12.49 ±0.009 and 12.489 ± 0.009 | C, 2H+ + L = H2L [2, 5]: 0.296 ± 0.001 | C, H+ + L = HL [2, 5]: 0.183 ± 0.015
SMILES: Oc1ccccc1O [PYR, pyrocatecholate]
log β, Zn2+ + 2L = ZnL2 ([1]; 0.05 M NaCl, T = 298.1 K): 16.66±0.04 | log β, Zn2+ + L = ZnL (1:1) ([1]; 0.05 M NaCl, T = 298.1 K): 9.29±0.03 | log β, Zn2+ + 2L = ZnL2 ([1]; 0.15 M NaCl, T = 298.1 K): 15.93±0.02 | log β, Zn2+ + L = ZnL (1:1) ([1]; 0.15 M NaCl, T = 298.1 K): 8.89±0.02 | log β, Zn2+ + 2L = ZnL2 ([1]; 0.30 M NaCl, T = 298.1 K): 15.32±0.01 | log β, Zn2+ + L = ZnL (1:1) ([1]; 0.30 M NaCl, T = 298.1 K): 8.57±0.01 | log β, Zn2+ + 2L = ZnL2 ([1]; 0.70 M NaCl, T = 298.1 K): 15.09±0.01 | log β, Zn2+ + L = ZnL (1:1) ([1]; 0.70 M NaCl, T = 298.1 K): 8.50±0.01 | log β, Zn2+ + 2L = ZnL2 ([1]; 1.00 M NaCl, T = 298.1 K): 14.59±0.01 | log β, Zn2+ + L = ZnL (1:1) ([1]; 1.00 M NaCl, T = 298.1 K): 8.23±0.01 | log β0 (indirect), ZnL [1, 6]: 9.97±0.03 and 9.97 | log β0 (indirect), ZnL22- [1, 6]: 16.54±0.04 and 16.54 | log β0 (indirect), ZnL [1, 7]: 9.85±0.02 and 9.85 | log β0 (indirect), ZnL22- [1, 7]: 15.70±0.02 and 15.70 | log β0 (indirect), ZnL [1, 8]: 9.65±0.01 and 9.65 | log β0 (indirect), ZnL22- [1, 8]: 15.03±0.01 and 15.03 | log β0 (indirect), ZnL [1, 9]: 9.50±0.01 and 9.50 | log β0 (indirect), ZnL22- [1, 9]: 14.84±0.01 and 14.84 | log β0 (indirect), ZnL [1, 10]: 9.05 ±01 and 9.05 | log β0 (indirect), ZnL22- [1, 10]: 14.42±0.01 and 14.42 | logβ0, Zn2+ + 2L = ZnL2 [1, 3]: 17.136±0.007 and 17.14±0.007 and 17.14 | logβ0, Zn2+ + L = ZnL (1:1) [1, 3]: 9.90±0.001 and 9.90 | C, Zn2+ + 2L = ZnL2 [1, 4]: -0.924±0.012
